Data on eight compounds can be found in patent publication US11399543B2, “Substituted 1,2,3,5-tetrahydroimidazo[1,2-a]pyrimidiniumolates for combating animal pests” (BASF SE, priority 2017, dated 2022).

SMILES strings stand for the structures. Read-outs that look alike come from different tables or passages of the source.

Assay type in all cases: in vivo
For data set [1], the system named is vetch aphid (Megoura viciae). Kind of data set: Vetch aphid, broad bean leaf disks, contact or systemic. Conditions: foliar, 120 h, 5 days, read-out: mortality in comparison with untreated controls. On the procedure:
For evaluating control of vetch aphid (Megoura viciae) through contact or systemic means the test unit consisted of 24-well-microtiter plates containing broad bean leaf disks.
The compounds were formulated using a solution containing 75% v/v water and 25% v/v DMSO. Different concentrations of formulated compounds were sprayed onto the leaf disks at 2.5 μl, using a custom built micro atomizer, at two replications.
After application, the leaf disks were air-dried and 5-8 adult aphids placed on the leaf disks inside the microtiter plate wells. The aphids were then allowed to suck on the treated leaf disks and incubated at about 23±1° C. and about 50±5% relative humidity for 5 days. Aphid mortality and fecundity was then visually assessed.

The subject of data set [2] is green peach aphid (Myzus persicae). Kind of data set: Green peach aphid B.5.2, systemic, artificial diet under membrane. The following applies: 72 h, read-out: mortality in comparison with untreated controls. The source says:
B.5.2. For evaluating control of green peach aphid (Myzus persicae) through systemic means the test unit consisted of 96-well-microtiter plates containing liquid artificial diet under an artificial membrane. The compounds were formulated using a solution containing 75% v/v water and 25% v/v DMSO. Different concentrations of formulated compounds were pipetted into the aphid diet, using a custom built pipetter, at two replications.
After application, 5-8 adult aphids were placed on the artificial membrane inside the microtiter plate wells. The aphids were then allowed to suck on the treated aphid diet and incubated at about 23±1° C. and about 50±5% relative humidity for 3 days. Aphid mortality and fecundity was then visually assessed.

For data set [3], the system named is Southern Armyworm (Spodoptera eridania), 2nd Instar Larvae. Kind of data set: Southern armyworm, sprayed lima bean plants. The following applies: 96 h, 4 days after treatment, read-out: mortality in comparison with untreated controls. On the procedure:
The active compounds were formulated in cyclohexanone as a 10,000 ppm solution supplied in tubes. The tubes were inserted into an automated electrostatic sprayer equipped with an atomizing nozzle and they served as stock solutions for which lower dilutions were made in 50% ace-tone:50% water (v/v). A nonionic surfactant (Kinetic®) was included in the solution at a volume of 0.01% (v/v).
Lima bean plants (variety sieva) were grown 2 plants to a pot and selected for treatment at the 1st true leaf stage. Test solutions were sprayed onto the foliage by an automated electrostatic plant sprayer equipped with an atomizing spray nozzle. The plants were dried in the sprayer fume hood and then removed from the sprayer. Each pot was placed into perforated plastic bags with a zip closure. About 10 to 11 armyworm larvae were placed into the bag and the bags zipped closed. Test plants were maintained in a growth room at about 25° C. and about 20-40% relative humidity for 4 days, avoiding direct exposure to fluorescent light (24 hour photoperiod) to prevent trapping of heat inside the bags. Mortality and reduced feeding were assessed 4 days after treatment, compared to untreated control plants.

Data set [4] deals with Green Soldier Stink Bug (Nezara viridula). Kind of data set: Green soldier stink bug, sprayed soybean pods in Petri dishes. Conditions: 120 h, after 5 days, late 3rd instar, read-out: mortality in comparison with untreated controls. On the procedure: The active compound was dissolved at the desired concentration in a mixture of 1:1 (vol:vol) distilled water:aceteone. Surfactant (Kinetic® HV) is added at a rate of 0.01% (vol/vol). The test solution was prepared at the day of use.
Soybean pods were placed in 90×50 mm glass Petri dishes lined with moist filter paper and inoculated with ten late 3rd instar N. viridula. Using a hand atomizer, an approximately 2 ml solution is sprayed into each Petri dish. Treated cups were kept at about 25-26° C. and relative humidity of about 65-70%. Percent mortality was recorded after 5 days.

Data set [5] concerns Cowpea Aphid (Aphis craccivora). Kind of data set: Cowpea aphid, sprayed potted cowpea plants. The following applies: after 72 hours, read-out: mortality in comparison with untreated controls. On the procedure:
(§1) The active compound is dissolved at the desired concentration in a mixture of 1:1 (vol:vol) distilled water:acetone. Surfactant (Alkamuls® EL 620) is added at a rate of 0.1% (vol/vol). The test solution is prepared at the day of use.
Potted cowpea plants were colonized with approximately 50-100 aphids of various stages by manually transferring a leaf tissue cut from infested plant 24 hours before application. Plants were sprayed after the pest population has been recorded. Treated plants are maintained on light carts at about 28° C. Percent mortality was assessed after 72 hours.

The subject of data set [6] is Rice Brown Plant Hopper (Nilaparvata lugens). Kind of data set: Rice brown plant hopper, sprayed rice seedlings. The following applies: after 72 hours, adults, read-out: mortality in comparison with untreated controls. On the procedure:
Rice seedlings were cleaned and washed 24 hours before spraying. The active compounds were formulated in 50:50 acetone:water (vol:vol) and 0.1% vol/vol surfactant (EL 620) was added. Potted rice seedlings were sprayed with 5 ml test solution, air dried, placed in cages and inoculated with 10 adults. Treated rice plants were kept at about 28-29° C. and relative humidity of about 50-60%. Percent mortality was recorded after 72 hours.

Data set [7] deals with tobacco budworm (Heliothis virescens). Kind of data set: Tobacco budworm control, microtiter plate insect diet with eggs. The following applies: 120 h, 5 days, read-out: mortality in comparison with untreated controls (egg and larval mortality). On the procedure:
For evaluating control of tobacco budworm (Heliothis virescens) the test unit consisted of 96-well-microtiter plates containing an insect diet and 15-25 H. virescens eggs.
The compounds were formulated using a solution containing 75% v/v water and 25% v/v DMSO. Different concentrations of formulated compounds were sprayed onto the insect diet at 10 μl, using a custom built micro atomizer, at two replications.
After application, microtiter plates were incubated at about 28±1° C. and about 80±5% relative humidity for 5 days. Egg and larval mortality was then visually assessed.

Data set [8] concerns Rice Green Leafhopper (Nephotettix virescens). Kind of data set: Rice green leafhopper, sprayed rice seedlings. Conditions: after 72 hours, adults, read-out: mortality in comparison with untreated controls. On the procedure: Rice seedlings were cleaned and washed 24 hours before spraying. The active compounds were formulated in 50:50 acetone:water (vol:vol), and 0.1% vol/vol surfactant (EL 620) was added. Potted rice seedlings were sprayed with 5 ml test solution, air dried, placed in cages and inoculated with 10 adults. Treated rice plants were kept at about 28-29° C. and relative humidity of about 50-60%. Percent mortality was recorded after 72 hours.

Data set [9] has as its system Diamond Back Moth (Plutella xylostella). Kind of data set: Diamond back moth, cabbage leaf dip. Conditions: foliar, 72 hours after treatment, 3rd instar larvae, read-out: mortality in comparison with untreated controls. On the procedure:
as §1
Leaves of cabbage were dipped in test solution and air-dried. Treated leaves were placed in petri dish enlined with moist filter paper and inoculated with ten 3rd instar larvae. Mortality was recorded 72 hours after treatment. Feeding damages were also recorded using a scale of 0-100%.

Data set [10] concerns Green Peach Aphid (Myzus persicae, Mixed Life Stages). Kind of data set: Green peach aphid B.5.1, sprayed bell pepper plants. Conditions: 120 h, after 5 days, read-out: mortality in comparison with untreated controls. On the procedure:
B.5.1. The active compounds were formulated by a Tecan liquid handler in 100% cyclohexanone as a 10,000 ppm solution supplied in tubes. The 10,000 ppm solution was serially diluted in 100% cyclohexanone to make interim solutions. These served as stock solutions for which final dilutions were made by the Tecan in 50% acetone:50% water (v/v) into 10 or 20 ml glass vials. A nonionic surfactant (Kinetic®) was included in the solution at a volume of 0.01% (v/v). The vials were then inserted into an automated electrostatic sprayer equipped with an atomizing nozzle for application to plants/insects.
Bell pepper plants at the first true-leaf stage were infested prior to treatment by placing heavily infested leaves from the main colony on top of the treatment plants. Aphids were allowed to transfer overnight to accomplish an infestation of 30-50 aphids per plant and the host leaves were removed. The infested plants were then sprayed by an automated electrostatic plant sprayer equipped with an atomizing spray nozzle. The plants were dried in the sprayer fume hood, removed, and then maintained in a growth room under fluorescent lighting in a 24-hr photoperiod at about 25° C. and about 20-40% relative humidity. Aphid mortality on the treated plants, relative to mortality on untreated control plants, was determined after 5 days.

Data set [11] relates to Silverleaf Whitefly (Bemisia argentifolii) (Adults). Kind of data set: Silverleaf whitefly adults, sprayed cotton plants. Conditions: at 300, 3 days after treatment. The source says:
The active compounds were formulated in cyclohexanone as a 10,000 ppm solution supplied in tubes. The tubes were inserted into an automated electrostatic sprayer equipped with an atomizing nozzle and they served as stock solutions for which lower dilutions were made in 50% ace-tone:50% water (v/v). A non-ionic surfactant (Kinetic®) was included in the solution at a volume of 0.01% (v/v).
Cotton plants at the cotyledon stage (one plant per pot) were sprayed by an automated electrostatic plant sprayer equipped with an atomizing spray nozzle. The plants were dried in the sprayer fume hood and then removed from the sprayer. Each pot was placed into a plastic cup and about 10 to 12 whitefly adults (approximately 3-5 days old) were introduced. The insects were collected using an aspirator and a nontoxic Tygon® tubing connected to a barrier pipette tip. The tip, containing the collected insects, was then gently inserted into the soil containing the treated plant, allowing insects to crawl out of the tip to reach the foliage for feeding. Cups were covered with a reusable screened lid. Test plants were maintained in a growth room at about 25° C. and about 20-40% relative humidity for 3 days, avoiding direct exposure to fluorescent light (24-hour photoperiod) to prevent trapping of heat inside the cup. Mortality was assessed 3 days after treatment, compared to untreated control plants.

[12] abbreviates: at 2500 ppm, 3 days, systemic, artificial diet.

As to `CN1C[C@@H](c2cnc(Cl)s2)n2c1[n+](C)c([O-])c(-c1cccc(C(F)(F)F)c1)c2=O` [Compound C-20], the mortality at 2500 ppm in data set [1] and in data set [2] (setting [12]) was greater than 75% each time. For the same compound, the mortality at 300 ppm in [3], in data set [4] and in [5] was greater than 75% in each case.

Turning to `C[n+]1c([O-])c(-c2ccccc2)c(=O)n2c1N(C(=O)OC(C)(C)C)CC2c1cnc(Cl)s1` (centres unmarked) [Compound C-2], the mortality (commonly the share of the test organisms that died) at 2500 ppm in [2] (setting [12]) was greater than 75%.

For the compound `COc1ccc(-c2c([O-])n3c([n+](C)c2=O)N(C)CC3c2cnc(Cl)s2)cc1` (centres unmarked) [Compound C-1, 3-(2-chlorothiazol-5-yl)-6-(4-methoxyphenyl)-1,8-dimethyl-7-oxo-2,3-dihydroimidazo[1,2-a]pyrimidin-8-ium-5-olate], the mortality at 2500 ppm in data set [2] (setting [12]) is greater than 75%. In addition, in [5], the mortality at 300 ppm is greater than 75%.

With `CN1CC(c2ccc(Cl)nc2)n2c1[n+](C)c([O-])c(-c1cc(Cl)cc(Cl)c1)c2=O` (centres unmarked) [Compound C-21], the mortality at 2500 ppm in data set [2] is greater than 75%.

Regarding `CN1CC(c2cnc(Cl)s2)n2c1[n+](C)c([O-])c(-c1ccccc1)c2=O` (centres unmarked) [Compound C-3], the mortality at 2500 ppm in [1], in [2] (setting [12]) and in data set [7] was greater than 75% each time. In addition, the mortality at 300 ppm in data set [5], in data set [6] and in [8] was greater than 75% in each case.

As to `CN1CC(c2cnc(Cl)s2)n2c1[n+](C)c([O-])c(-c1cc(Cl)cc(Cl)c1)c2=O` (centres unmarked) [Compound C-4], the mortality at 300 ppm in [9], in [3], in data set [5], in data set [6] and in [8] was greater than 75% each time. For the same compound, the mortality at 2500 ppm in [1], in data set [2] (setting [12]) and in data set [7] was greater than 75% in each case.

As to `CN1CC(c2cnc(Cl)s2)n2c1[n+](C)c([O-])c(-c1cccc(C(F)(F)F)c1)c2=O` (centres unmarked) [Compound C-5], the mortality at 300 ppm in data set [9], in [10], in data set [3], in data set [4], in [5] and in [6] was greater than 75% in each case. Besides, the mortality at 300 ppm in [8] was greater than 75%. The mortality at 2500 ppm in data set [1], in [2] (setting [12]) and in [7] was greater than 75% throughout. The “mortality in comparison with untreated controls” value in data set [11] was “over 75%”.

In the case of `C[n+]1c2n(c([O-])c(-c3ccccc3)c1=O)C(c1cnc(Cl)s1)CN2` (centres unmarked) [Compound C-25], the mortality at 2500 ppm in data set [2] is greater than 75%.
